Our source for the Dmax and Ki values is patent US20250263395A1, “COMPOUNDS THAT MEDIATE PROTEIN DEGRADATION AND METHODS OF USE THEREOF” (Monte Rosa Therapeutics AG, priority 2022, published 2025).

One may read the Dmax as the greatest extent of degradation seen. A higher Dmax goes with deep degradation. The term Ki denotes the equilibrium dissociation constant of an inhibitor or competing ligand from its target. Lower therefore signals higher affinity.

Where only a bound is given, the exact number is not on record here.

One experiment has as its target CDK2 (Homo sapiens (Human), UniProt P24941). Description: CDK2 NanoBiT assay (HiBiT-tagged CDK2 degradation). To be noted: HEK293, HEK293 clonal line, C-terminal HiBiT tag on CDK2, LgBiT; 24 hours. It is filed as cell-based. In a few lines: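 HEK293 line with CRISPR knock-in C-terminal HiBiT-tagged CDK2 and stable LgBiT, preincubated 16 h with live-cell substrate, then compound-treated 24 h at 37° C, 5% CO2 (30 μM stock). Luminescence normalized to plate negative and positive controls; EC50 from 3-parameter logistic fit, Hill slope 1.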
A general note: With HiBiT, luminescence reflects the tagged protein that the partner subunit can reach.

Another experiment deals with CRBN-DDB1 (Homo sapiens (Human), UniProt Q96SW2). The experiment can be described thus: CRBN HTRF assay (Cy5-Thalidomide probe displacement). To be noted: CRBN-DDB1 2.5 nM, Cy5-Thalidomide 100 nM, 30 min; Ki from geometric mean IC50 by Cheng-Prusoff. It is filed as binding. In outline: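 HTRF displacement of Cy5-thalidomide probe (100 nM) from His-CRBN-DDB1 (2.5 nM) with anti-His terbium cryptate, in HEPES/NaCl/TCEP/EDTA/Tween20 buffer. 10-point 1:3 compound series, 30 min at ambient temperature; signal normalised to DMSO and lenalidomide controls, IC50 fitted and Ki derived by Cheng-Prusoff.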
CRBN-DDB1, sequence (Q96SW2 whole entry): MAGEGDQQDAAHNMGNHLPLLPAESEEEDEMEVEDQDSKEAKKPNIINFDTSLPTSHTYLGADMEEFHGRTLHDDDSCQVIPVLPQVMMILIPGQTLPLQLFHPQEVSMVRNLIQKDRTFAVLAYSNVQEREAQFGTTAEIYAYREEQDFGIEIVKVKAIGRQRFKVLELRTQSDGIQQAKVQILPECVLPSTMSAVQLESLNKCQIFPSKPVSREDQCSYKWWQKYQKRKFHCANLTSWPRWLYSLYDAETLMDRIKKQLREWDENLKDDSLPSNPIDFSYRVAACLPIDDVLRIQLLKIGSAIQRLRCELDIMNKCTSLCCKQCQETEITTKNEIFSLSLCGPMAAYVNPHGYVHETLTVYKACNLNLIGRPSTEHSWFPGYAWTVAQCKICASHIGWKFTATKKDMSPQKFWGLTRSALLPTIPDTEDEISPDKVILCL
CRBN-DDB1, sequence (Q16531 whole entry partner): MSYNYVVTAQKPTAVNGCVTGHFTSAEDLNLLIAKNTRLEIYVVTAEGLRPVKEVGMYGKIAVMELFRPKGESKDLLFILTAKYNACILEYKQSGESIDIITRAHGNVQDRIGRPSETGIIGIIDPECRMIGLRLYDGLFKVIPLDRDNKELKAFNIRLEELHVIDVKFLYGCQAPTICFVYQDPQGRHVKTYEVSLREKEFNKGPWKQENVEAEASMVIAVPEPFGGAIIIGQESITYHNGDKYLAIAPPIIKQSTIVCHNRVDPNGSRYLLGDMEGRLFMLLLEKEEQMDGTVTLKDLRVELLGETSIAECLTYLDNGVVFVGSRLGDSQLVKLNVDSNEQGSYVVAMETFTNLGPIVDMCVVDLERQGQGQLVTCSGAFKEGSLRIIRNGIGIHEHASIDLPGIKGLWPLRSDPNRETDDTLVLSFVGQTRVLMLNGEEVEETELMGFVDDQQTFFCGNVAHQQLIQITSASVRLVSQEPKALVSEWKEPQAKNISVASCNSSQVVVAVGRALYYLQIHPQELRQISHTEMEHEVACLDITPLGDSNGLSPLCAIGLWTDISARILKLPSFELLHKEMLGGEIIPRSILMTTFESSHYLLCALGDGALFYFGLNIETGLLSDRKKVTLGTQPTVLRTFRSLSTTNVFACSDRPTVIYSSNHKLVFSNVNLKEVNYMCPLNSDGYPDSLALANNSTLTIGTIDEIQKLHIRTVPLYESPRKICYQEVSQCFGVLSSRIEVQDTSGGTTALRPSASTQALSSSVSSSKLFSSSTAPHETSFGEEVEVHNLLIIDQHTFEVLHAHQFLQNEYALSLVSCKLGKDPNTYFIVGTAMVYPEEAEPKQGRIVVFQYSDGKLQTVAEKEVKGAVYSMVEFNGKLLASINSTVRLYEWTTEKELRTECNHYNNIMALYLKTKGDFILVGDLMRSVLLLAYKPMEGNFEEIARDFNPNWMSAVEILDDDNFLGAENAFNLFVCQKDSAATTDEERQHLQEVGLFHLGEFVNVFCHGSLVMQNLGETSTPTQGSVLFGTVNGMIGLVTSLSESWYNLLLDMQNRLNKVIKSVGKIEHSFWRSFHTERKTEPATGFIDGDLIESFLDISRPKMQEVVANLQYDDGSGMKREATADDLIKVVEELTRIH

Consider `COc1ccc(-c2nnc(NC3CN(c4cc(F)c(C5CCC(=O)NC5=O)c(F)c4)C3)o2)cc1` (centres unmarked) [Compound 98, 3-(2,6-difluoro-4-(3-((5-(4-methoxyphenyl)-1,3,4-oxadiazol-2-yl)amino)azetidin-1-yl)phenyl)piperidine-2,6-dione], for which the Dmax on CDK2 was > 80%. The Ki on CRBN-DDB1 is ≤ 100 nM.
Taken in the same sequence, the figures for `O=C1CCC(c2c(F)cc(N3CC(NC(=O)OC4CN(C(=O)c5ccc(Cl)cc5)C4)C3)cc2F)C(=O)N1` (centres unmarked) [Compound 26, 1-(4-chlorobenzoyl)azetidin-3-yl (1-(4-(2,6-dioxopiperidin-3-yl)-3,5-difluorophenyl)azetidin-3-yl)carbamate] were 50 to 80% and ≤ 100 nM.
On to `O=C1CCC(c2c(F)cc(N3CC(Nc4nnc(-c5ccc(Cl)cc5)o4)C3)cc2F)C(=O)N1` (centres unmarked) [Compound 93, 3-(4-(3-((5-(4-chlorophenyl)-1,3,4-oxadiazol-2-yl)amino)azetidin-1-yl)-2,6-difluorophenyl)piperidine-2,6-dione], for which the Dmax at CDK2 was > 80%. At CRBN-DDB1, this molecule showed a Ki of 100 to 1000 nM.
For `COC12CC(c3nnc(N[C@H]4CN(c5cc(F)c(C6CCC(=O)NC6=O)c(F)c5)[C@@H]4C)o3)(C1)C2` (stereo partly drawn) [Compound 139, 3-(2,6-difluoro-4-((2R,3S)-3-((5-(3-methoxybicyclo[1.1.1]pentan-1-yl)-1,3,4-oxadiazol-2-yl)amino)-2-methylazetidin-1-yl)phenyl)piperidine-2,6-dione], in that order: 50 to 80% and 100 to 1000 nM.
For `CN(C(=O)N1CC(OC(=O)NC2(C(F)(F)F)CN(c3cc(F)c(C4CCC(=O)NC4=O)c(F)c3)C2)C1)C1CC1` (centres unmarked) [Compound 11, 1-(cyclopropyl(methyl)carbamoyl)azetidin-3-yl (1-(4-(2,6-dioxopiperidin-3-yl)-3,5-difluorophenyl)-3-(trifluoromethyl)azetidin-3-yl)carbamate], in that order: 50 to 80% and ≤ 100 nM.
At CDK2, `CC(C)O[C@H]1C[C@@H](OC(=O)NC2CN(c3cc(F)c(C4CCC(=O)NC4=O)c(F)c3)C2)C1` (some centres unmarked) [Compound 39, (1s, 3s)-3-isopropoxycyclobutyl (1-(4-(2,6-dioxopiperidin-3-yl)-3,5-difluorophenyl)azetidin-3-yl)carbamate] returned a Dmax of 50 to 80%. Moreover, the Ki on CRBN-DDB1 was ≤ 100 nM.
Taken in the same sequence, the figures for `CN(CC1CC1)C(=O)C12CC(OC(=O)NC3CN(c4cc(F)c(C5CCC(=O)NC5=O)c(F)c4)C3)(C1)C2` (centres unmarked) [Compound 82, 3-((cyclopropylmethyl)(methyl)carbamoyl)bicyclo[1.1.1]pentan-1-yl (1-(4-(2,6-dioxopiperidin-3-yl)-3,5-difluorophenyl)azetidin-3-yl)carbamate] were > 80% and ≤ 100 nM.
